From US20210038579A1, “Treatment Of Patients With Classic Fabry Disease” (Amicus Therapeutics, Inc., priority 2018, published 2021)

Key:
plasma lyso-Gb3 = experiment: Phase 3 study, ERT-naïve Fabry patients: plasma lyso-Gb3 by liquid chromatography-mass-spectroscopy; type: in vivo, human; settings: baseline (or month 6) to month 24
Experimental: Globotriaosylceramide and Globotriaosylsphingosine. Plasma lyso-Gb3 and 24-hour urine GL-3 were analyzed by liquid chromatography-mass-spectroscopy using a novel stable isotope-labeled internal standard, 13C6-lyso-Gb3 (lower-limit-of-quantification: 0.200 ng/mL, 0.254 nmol/L).
(§1) For all outcomes except GL-3 inclusions per kidney interstitial capillary, data are pooled for patients within phenotype subgroups regardless of treatment allocation for the first six months (migalastat or placebo).

[1] = Phase 3 study, ERT-naïve Fabry patients: echocardiography (LVMi); type: in vivo, human; settings: for mean (SD) change in LVMi: baseline (or month 6) to month 24; for LVMi change: after 24 months of treatment
Experimental: Patient Enrollment. […] Study Design. […] Echocardiography. LVMi, left posterior wall thickness, diastolic, interventricular septum thickness, diastolic and other parameters were assessed through blinded, centralized evaluation. For all outcomes except GL-3 inclusions per kidney interstitial capillary, data are pooled for patients within phenotype subgroups regardless of treatment allocation for the first six months (migalastat or placebo).

[2] = Phase 3 study, ERT-naïve Fabry patients: renal function assessment (eGFRCKD-EPI, mGFRiohexol); type: in vivo, human
Experimental: Patient Enrollment. […] Study Design. […] Renal Function Assessment. Annualized rates of change (mL/min/1.73 m^2/year) were calculated using Chronic Kidney Disease Epidemiology Collaboration-[…]) and measured iohexol clearance-mGFRiohexol). For all outcomes except GL-3 inclusions per kidney interstitial capillary, data are pooled for patients within phenotype subgroups regardless of treatment allocation for the first six months (migalastat or placebo).

[3] = tested on: GL-3 inclusions per kidney interstitial capillary; experiment: Phase 3 study, ERT-naïve Fabry patients: kidney histology assessment; type: in vivo, human
Excerpt: Kidney Histology Assessment. Each patient underwent a baseline kidney biopsy, as well as repeat kidney biopsies at 6 and 12 months. The number of GL-3 inclusions per kidney interstitial capillary per patient at baseline, and at 6 and 12 months was quantitatively assessed in 300 capillaries by 3 independent pathologists blinded to treatment and visit. All values for each individual biopsy at a given time were averaged prior to statistical analysis.
Statistical Analyses for Kidney Interstitial Capillary GL-3 Substrate. The primary Stage 1 (6 month) endpoint (i population with baseline biopsies, n=64) was the proportion of patients in the migalastat and placebo groups with a ≥50% reduction in GL-3 inclusions per kidney interstitial capillary. Two other Stage 1 endpoints were assessed (modified-ITT population: randomized patients with paired baseline and month 6 biopsies; n=60): percent change in GL-3 inclusions per kidney interstitial capillary, and percent of interstitial capillaries with zero GL-3 inclusions.
Efficacy analyses for GL-3 inclusions per kidney interstitial capillary and other pre-specified endpoints in Stage 2 (months 6-12) and the open-label-extension (months 12-24) were based on the modified intention to treat (mITT)—population consisting of randomized patients with mutant α-Gal A enzyme shown to be suitable for migalastat treatment by the validated assay; n=50).
as §1

α-Gal A mutant forms = experiment: HEK assay: means over groups of GLA mutations found in enrolled patients; type: cell-based, human; settings: 10 μM of migalastat
Experimental: Such mutations are also referred to herein as “HEK assay amenable” mutations.
In this assay, cDNA constructs are created. The corresponding α-Gal A mutant forms are transiently expressed in HEK-293 cells. Cells are then incubated±migalastat (17 nM to 1 mM) for 4 to 5 days. After, α-Gal A levels are measured in cell lysates using a synthetic fluorogenic substrate (4-MU-α-Gal) or by western blot. This has been done for known disease-causing missense or small in-frame insertion/deletion mutations.

[4] = Phase 3 study, ERT-naïve Fabry patients: Gastrointestinal Symptoms Rating Scale for Diarrhea (GSRS-D); type: in vivo, human; settings: for mean change in GSRS-D: total amenable patient population
Experimental: as §1, with “Patient Enrollment. […] Study Design. […] Patient-Reported Outcomes. Patient-reported outcomes were assessed using the Gastrointestinal-Symptoms-Rating-Scale (GSRS), Short Form-36v2TM and Brief-Pain-Inventory-Pain-Severity-Component. For” for “For”

[5] = Phase 3 study, ERT-naïve Fabry patients: safety analysis and adverse events
Experimental: Study Design. Following eligibility-baseline assessments (2 months), patients were randomized to Stage 1—6 months of double-blind administration of 150 mg migalastat hydrochloride or placebo every other day. All patients completing Stage 1 were eligible to receive open-label migalastat in Stage 2 (months 6-12) and for an additional year (months 13-24) thereafter. […] Study completers were eligible to enroll in the open-label extension study for up to 5 years.
Safety Analysis and Adverse Events. Randomized patients receiving ≤1 dose were included in the safety analysis, which comprised vital signs, physical exams, electrocardiograms, clinical labs, and adverse events.

[6] = overall amenable population, baseline to month 24
[7] = GLA mutations of enrolled patients reported as associated with the classic phenotype in the literature
[8] = open-label-extension, 6/57 patients

## OC[C@H]1NC[C@H](O)[C@@H](O)[C@H]1O [migalastat]
Plasma lyso-Gb3; classic males
  average (SD) change in plasma lyso-Gb3: −36.04 (34.48) nmol/L
Plasma lyso-Gb3; other patients
  average (SD) change in plasma lyso-Gb3: −16.33 (19.73) nmol/L
[1]; classic male patients, age range 16-61 years
  classic male patients with data reporting a reduction in LVMi: 7/8
[1]; classic males
  mean (SD) change in LVMi: −16.7 (18.64) g/m^2
[1]; other patients
  mean (SD) change in LVMi: −3.2 (18.66) g/m^2
[1]; overall migalastat-treated population
  LVMi change: −7.7 g/m^2
[1]; patients with LVH
  LVMi change: −18.6 g/m^2
[2]; classic male subgroup, baseline (or month 6 for patients randomized to placebo) to month 24, 150 mg migalastat hydrochloride every other day
  mean (SD) annualized rate of change in eGFRCKD-EPI: −0.3 (3.76) mL/min/1.73 m^2
[2]; classic males, baseline (or month 6) to month 24
  mean (SD) annualized rate of change in mGFRiohexol: −3.0 (6.04) mL/min/1.73 m^2
[2]; classic males, baseline to month 24
  median change in mGFRiohexol: -1.03 mL/min/1.73 m²
[2]; one classic patient, month 6 to month 24
  reduction in mGFRiohexol in one classic patient: -16 mL/min/1.73 m²
[2]; other patients subgroup, baseline (or month 6) to month 24
  mean (SD) annualized rate of change in eGFRCKD-EPI: −0.3 (4.47) mL/min/1.73 m^2
[2]; other patients, baseline (or month 6) to month 24
  mean (SD) annualized rate of change in mGFRiohexol: −1.0 (6.66) mL/min/1.73 m^2
[2]; other patients, baseline to month 24
  median change in mGFRiohexol: -0.34 mL/min/1.73 m²
[2]; [6]
  annualized change in eGFRCKD-EPI: −0.3 (0.66) mL/min/1.73 m^2
  annualized change in mGFRiohexol: −1.5 (1.33) mL/min/1.73 m^2
[3]; classic male patients switched from placebo to migalastat at month 6, next 6 months
  mean (SD) change in GL-3 inclusions per kidney interstitial capillary: −0.7 (0.91)
[3]; total amenable patient population, 6 months of migalastat treatment
  mean change in GL-3 inclusions: −0.25
[3]; total patient population, after switching from placebo to migalastat at month 6
  mean change in GL-3 inclusions: −0.33
α-Gal A mutant forms; [7]
  mean absolute increase in α-Gal A activity: 24.8 % of WT
  mean activity increase over baseline: 8.2 fold over baseline
α-Gal A mutant forms; all other mutations
  mean absolute increase in α-Gal A activity: 24.5 % of WT
  mean activity increase over baseline: 6.8 fold over baseline
[4]; 7 of the 8 patients, by 24 months
  classic male patients with diarrhea at baseline achieving MCID reduction of 0.33 in GSRS-D: 88%
[4]; classic male patients, by 24 months
  mean (SD) change from baseline (or month 6) in diarrhea symptoms (GSRS-D): −0.9 (1.75)
[4]; other patients, month 24
  mean (SD) change in GSRS-D: −0.5 (1.01)
[4]; month 6
  mean change in GSRS-D: −0.3
[4]; month 24
  mean change in GSRS-D: −0.5
[5]; Stage 1, 6/34 patients receiving migalastat
  patients with nasopharyngitis: 18%
[5]; Stage 1, 12/34 patients receiving migalastat
  patients with headache: 35%
[5]; Stage 1, migalastat group
  patients experiencing serious adverse events: 2 patients
[5]; Stage 2
  patients experiencing serious adverse events: 5 patients
[5]; Stage 2, 7/63 patients
  patients with procedural pain (related to kidney biopsies): 11%
[5]; Stage 2, 9/63 patients
  patients with headache: 14%
[5]; as defined in Banikazemi et al.
  end-stage renal disease, cardiac death, stroke: no progression to end-stage renal disease, no cardiac death and no stroke
[5]; both deemed unrelated to migalastat
  patients who discontinued migalastat due to serious adverse events: Two
[5]; fatigue and paresthesia, same patient, months 12-24, resolved
  serious adverse events assessed as possibly related to migalastat by the investigator: Two
[5]; human, in vivo
  adverse events leading to migalastat discontinuation: No adverse events led to migalastat discontinuation
  vital sign, physical findings, laboratory, and ECG parameters: did not reveal any clinically relevant effect
[5]; judged unrelated to migalastat
  transient ischemic attack: single case
[5]; most adverse events
  severity of adverse events: mild or moderate in severity
[5]; open-label-extension
  patients experiencing serious adverse events: 11 patients
[5]; open-label-extension (months 12-24), 9/57 patients
  patients with (treatment-emergent) proteinuria: 16%
[5]; [8]
  patients with bronchitis: 11%
  patients with headache: 11%
[5]; patients with baseline proteinuria <300 mg/24-h
  patients in whom 24-hour urine protein remained stable during migalastat treatment: 23/28
